Assays:
[1] = cited from earlier work
M-NFS-60 cells = assay: Proliferation of CSF-1R highly activated mouse myeloid leukemia cell M-NFS-60 (CCK-8); format: cell-based; settings: 72 h, read-out: IC50 inhibition of cell proliferation, M-NFS-60
[2] = tested on: CSF-1-induced bone marrow-derived macrophages (BMDM); assay: CSF-1-induced murine-derived macrophage (BMDM) survival (CCK-8); format: cell-based, BALB/c mice; settings: Mus musculus, 168 h, murine-derived macrophages, 100 ng/mL CSF-1, 7 days, mean±SD, read-out: IC50 inhibition of cell survival, BMDM (CSF-1)
Procedure: BALB/c mice (female, 6 weeks old, healthy) were sacrificed. Bone marrow cells were taken from their femurs and tibia, and seeded into a 96-well culture plate at appropriate densities (90 µL per well) after erythrobiasis treatment. 100 ng/mL of CSF-1 factor was added to each well to induce macrophages (Bone marrow-derived macrophages, BMDM), and compounds at various concentrations were added and the plate was allowed for incubation for 7 days. A solvent control group (negative control) was set. After 7 day-exposure of the cells to the compounds, 10 µL of CCK-8 reagent was added to each well. The culture plate was placed in an incubator at 37° C. for 2-4 h, and then was read with a full-wavelength microplate reader setting at the wavelength of 450 nm.

[3] = tested on: CSF-1-induced human macrophages (PBMC-derived CD14+ monocytes); assay: Survival of CSF-1-induced human macrophages from PBMC (CCK-8); format: cell-based; settings: 168 h; human-derived macrophages, 100 ng/mL CSF-1, 7 days; mean±SD; read-out: IC50 inhibition of cell survival, PBMC (CSF-1)
Procedure: Cryopreserved human-derived peripheral blood (peripheral blood from healthy donors) mononuclear cells (PBMCs) were taken out of liquid nitrogen for recovery. After recovery, the cells were re-suspended at 50 million/mL with the running buffer and DNAase I was added at a final concentration of 100 µg/mL and the plate was allowed for incubation for 15 min at room temperature. After centrifugation at 300 g for 5 min, the supernatant was discarded. The pellet was re-suspended at 50 million cells/mL with the running buffer, and the suspension was filtered through a 70 µM filter screen into a flow tube. The cells were sorted by using CD14+ monocyte negative selection beads sorting kit from […] company. According to the manufacture’s instructions, the specific experimental procedures were as follows.
After cells were re-suspended at 50 million cells/mL, 50 µL of the cocktail was added to each one mL of samples. The samples were incubated at room temperature for 5 min. The magnetic beads were vortexed for 30 sec, and added to the samples. The samples were incubated for further 5 min. The sample volumes were made up to 2.5 mL. The samples were placed on a magnetic frame ([…], #18000) for 2.5 min. […] The plate was placed in an incubator at 37° C. for 2-4 h, and then was read with an adjustable wavelength microplate reader setting at a wavelength of 450 nm.

## Bavencio: anti-PD-L1 antibody
[1]; some of the patients
  adverse response in treated patients: infusion-related response predominantly of grade 1-3 severity

## FC(F)(F)c1ccc(CNc2ccc(Cc3c[nH]c4ncc(Cl)cc34)cn2)cn1 [PLX3397, Pexidartinib, reference compound]
M-NFS-60 cells
  IC50: 62.6 ± 15.8 nM
[2]
  IC50: 48.9 ± 5.9 nM
[3]
  IC50: 237 ± 14.7 nM
[1]; drug label
  black box warning on drug label: risk of severe and potentially fatal liver injury

## Yervoy: an anti-CTLA-4 antibody
[1]; treated patients
  patients experiencing immune-related adverse events: up to 60%
  share of immune-related adverse events that were severe (grade 3-4): 10-30%

From patent US20230285389A1, “USE OF CSF-1R KINASE INHIBITOR” (Shanghai Runshi Medical Technology Co., Ltd, priority 2020, published 2023)
